Where two headings read alike, the source gives them in different places.
Tests used:
NR1/NR2B [1] = molecular target: NR1/NR2B (Homo sapiens (Human), UniProt Q05586+Q13224); test: Cell assay: FDSS Ca2+ influx inhibition in HEK293 cells expressing NR1/NR2B; conditions: Binned Activity;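 note: Fluo-8 Ca2+ signal read on Hamamatsu FDSS 6000 after glutamate, glycine and Ca2+ challenge following 10 min compound preincubation, end/baseline fluorescence ratio compared with MK801 control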
NR1/NR2B [2] = molecular target: NR1/NR2B (Homo sapiens (Human), UniProt Q13224); test: as above; conditions: read-out: NR2B NAM IC50
[3] = HEK293 cells expressing NR1/NR2B, Ca2+ influx, binned NR2B NAM IC50
[4] = HEK293 cells expressing NR1/NR2B, Ca2+ influx

Chain of NR1/NR2B (Homo sapiens (Human), UniProt Q05586+Q13224) (Q13224 27-1484, other chains not shown): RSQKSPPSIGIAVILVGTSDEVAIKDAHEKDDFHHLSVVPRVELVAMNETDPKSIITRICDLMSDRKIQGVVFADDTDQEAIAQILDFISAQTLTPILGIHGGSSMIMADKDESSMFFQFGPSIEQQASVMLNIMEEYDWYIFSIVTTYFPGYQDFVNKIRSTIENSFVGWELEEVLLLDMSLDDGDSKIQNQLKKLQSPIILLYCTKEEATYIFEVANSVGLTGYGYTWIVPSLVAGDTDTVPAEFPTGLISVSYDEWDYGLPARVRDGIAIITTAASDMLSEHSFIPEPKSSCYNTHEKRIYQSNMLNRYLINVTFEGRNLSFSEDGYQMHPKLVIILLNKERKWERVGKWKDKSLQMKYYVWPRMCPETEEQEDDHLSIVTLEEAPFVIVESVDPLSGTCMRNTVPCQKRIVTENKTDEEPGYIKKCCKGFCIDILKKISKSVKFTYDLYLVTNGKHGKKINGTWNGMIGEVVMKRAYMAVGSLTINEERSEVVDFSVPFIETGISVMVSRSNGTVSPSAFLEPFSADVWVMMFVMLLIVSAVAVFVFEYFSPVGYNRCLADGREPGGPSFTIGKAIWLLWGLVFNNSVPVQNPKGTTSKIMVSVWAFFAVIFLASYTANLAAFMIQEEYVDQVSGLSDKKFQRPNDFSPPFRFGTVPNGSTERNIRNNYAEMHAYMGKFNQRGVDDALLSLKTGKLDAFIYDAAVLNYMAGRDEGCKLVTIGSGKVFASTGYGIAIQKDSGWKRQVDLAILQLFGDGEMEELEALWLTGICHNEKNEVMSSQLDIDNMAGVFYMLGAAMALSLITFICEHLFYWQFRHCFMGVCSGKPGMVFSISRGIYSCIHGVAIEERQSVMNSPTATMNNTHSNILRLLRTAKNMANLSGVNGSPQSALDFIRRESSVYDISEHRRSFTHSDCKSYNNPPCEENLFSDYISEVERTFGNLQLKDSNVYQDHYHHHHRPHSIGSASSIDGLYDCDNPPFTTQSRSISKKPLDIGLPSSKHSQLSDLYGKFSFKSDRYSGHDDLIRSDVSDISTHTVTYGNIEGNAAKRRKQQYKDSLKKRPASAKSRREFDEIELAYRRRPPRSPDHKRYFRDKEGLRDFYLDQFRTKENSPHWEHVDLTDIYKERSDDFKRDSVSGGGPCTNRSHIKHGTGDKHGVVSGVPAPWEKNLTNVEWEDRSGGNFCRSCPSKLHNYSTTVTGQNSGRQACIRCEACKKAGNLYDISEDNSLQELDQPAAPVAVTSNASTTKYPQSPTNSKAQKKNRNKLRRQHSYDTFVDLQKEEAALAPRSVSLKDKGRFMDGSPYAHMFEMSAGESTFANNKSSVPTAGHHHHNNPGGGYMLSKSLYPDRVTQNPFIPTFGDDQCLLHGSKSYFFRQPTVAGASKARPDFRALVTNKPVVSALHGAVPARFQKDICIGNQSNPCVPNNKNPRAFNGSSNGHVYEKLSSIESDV
Chain of NR1/NR2B (Homo sapiens (Human), UniProt Q13224) (Q13224 27-1484, other chains not shown): as above

Row | SMILES | IC50 (NR1/NR2B [1]; [3]) [µM] | IC50 (NR1/NR2B [2]; [4]) [µM] | IC50 (NR1/NR2B [1]) [µM] | IC50 (NR1/NR2B [2]) [µM]
1 | COc1ccccc1CNC(=O)N1C[C@H]2C[C@@H](c3ccccc3)C[C@H]2C1 [Example 112, N-[(2-methoxyphenyl)methyl]-5-phenyl-octahydrocyclopenta[c] pyrrole-2-carboxamide] | > 10 | 10 | – | –
2 | O=C(Nc1ccccc1)N1C[C@@H]2C[C@@](O)(Cc3ccccc3)C[C@@H]2C1 [Example 122, (3aR,5r,6aS)-5-benzyl-5-hydroxy-N-phenylhexahydrocyclo-penta[c]pyrrole-2(1H)-carboxamide] | > 10 | 10 | – | –
3 | O=C(Nc1cccc(C(F)(F)F)c1)N1C[C@H]2C[C@@H](c3ccccc3)C[C@H]2C1 [Example 105, 5-phenyl-N-[3-(trifluoromethyl)phenyl]-octahydrocyclopenta[c] pyrrole-2-carboxamide] | > 10 | 10 | – | –
4 | O=C(Nc1cccc(Cl)c1)N1C[C@@H]2C[C@@](O)(c3ccccc3)C[C@@H]2C1 [Example 4, N-(3-chlorophenyl)-5-hydroxy-5-phenyl-octahydrocyclopenta[c] pyrrole-2-carboxamide] | > 10 | 10 | – | –
5 | Oc1ccc([C@H](O)CN2C[C@@H]3C[C@@](O)(Cc4ccccc4)C[C@@H]3C2)cc1F [Example 156, (3aR,5S,6aS)-5-benzyl-2-((S)-2-(3-fluoro-4-hydroxyphenyl)-2-hydroxyethyl)octahydro-cyclopenta[c]pyrrol-5-ol] | < 0.1 | 0.0305 | – | –
6 | O=C(CN1C[C@@H]2C[C@@](O)(Cc3ccc(F)c(F)c3)C[C@@H]2C1)c1ccc(O)cc1 [Example 252, 2-((3aR,5r,6aS)-5-(3,4-difluorobenzyl)-5-hydroxyhexahydrocyclo-penta[c]pyrrol-2(1H)-yl)-1-(4-hydroxyphenyl)ethanone] | < 0.1 | 0.0853 | – | –
7 | O=C(CN1C[C@@H]2C[C@@](O)(Cc3ccccc3)C[C@@H]2C1)c1ccc(=O)[nH]n1 [Example 157, 6-(2-((3aR,5r,6aS)-5-benzyl-5-hydroxyhexahydrocyclo-penta[c]pyrrol-2(1H)-yl)acetyl)pyridazin-3(2H)-one] | > 10 | 10 | – | –
8 | O=C(CN1C[C@@H]2C[C@@](O)(Cc3ccc(Cl)cc3)C[C@@H]2C1)c1ccc(O)cn1 [Example 218, 2-((3aR,5r,6aS)-5-(4-chlorobenzyl)-5-hydroxyhexaydrocyclo-penta[c]pyrrol-2(1H)-yl)-1-(5-hydroxypyridin-2-yl)ethanone] | 0.1 to 1 | 0.374 | – | –
9 | COC(=O)c1ccc(NC(=O)N2C[C@@H]3C[C@@](O)(c4ccccc4)C[C@@H]3C2)cc1 [Example 28, methyl 4-[({5-hydroxy-5-phenyl-octahydrocyclopenta[c]pyrrol-2-yl}carbonyl)amino] benzoate] | > 10 | 10 | – | –
10 | O=C(CN1C[C@H]2C[C@@H](c3ccccc3)C[C@H]2C1)c1ccc(O)cc1 [Example 114, 1-(4-hydroxyphenyl)-2-(5-phenylhexahydrocyclo-penta[c]pyrrol-2(1H)-yl)ethanone] | 0.1 to 1 | 0.232 | – | –
11 | COc1ccc(C)cc1NC(=O)N1C[C@@H]2C[C@@](O)(c3ccccc3)C[C@@H]2C1 [Example 27, 5-hydroxy-N-(2-methoxy-5-methylphenyl)-5-phenyl-octahydrocyclopenta[c] pyrrole-2-carboxamide] | – | – | > 10 | 10
12 | O=C(CN1C[C@@H]2C[C@@](O)(CC3CC3)C[C@@H]2C1)c1ccc(O)cc1 [Example 210, 2-((3aR,5r,6aS)-5-(cyclopropylmethyl)-5-hydroxyhexahydrocyclo-penta[c]pyrrol-2(1H)-yl)-1-(4-hydroxyphenyl)ethanone] | > 10 | 10 | – | –
13 | O=C(Nc1cccnc1)N1C[C@@H]2C[C@@](O)(c3ccccc3)C[C@@H]2C1 [Example 44] | > 10 | 10 | – | –
14 | O=C(Nc1ccc(F)cc1F)N1C[C@@H]2C[C@@](O)(c3ccccc3)C[C@@H]2C1 [Example 19, N-(2,4-difluorophenyl)-5-hydroxy-5-phenyl-octahydrocyclopenta[c] pyrrole-2-carboxamide] | > 10 | 10 | – | –
15 | O=C(CN1C[C@@H]2C[C@@](O)(Cc3ccc(F)cc3)C[C@@H]2C1)c1ccc(O)c(F)c1 [Example 169, 1-(3-fluoro-4-hydroxyphenyl)-2-((3aR,5r,6aS)-5-(4-fluorobenzyl)-5-hydroxyhexahydrocyclo-penta[c]pyrrol-2(1H)-yl)ethanone] | 0.1 to 1 | 0.117 | – | –
16 | O=C(CN1C[C@@H]2C[C@@](O)(Cc3ccccc3F)C[C@@H]2C1)c1ccc(O)cc1 [Example 225, 2-((3aR,5r,6aS)-5-(2-fluorobenzyl)-5-hydroxyhexahydrocyclo-penta[c]pyrrol-2(1H)-yl)-1-(4-hydroxyphenyl)ethanone] | < 0.1 | 0.0273 | – | –
17 | CC(C)(C)c1ccc([C@]2(O)C[C@H]3CN(C(=O)Nc4cccc(C(F)(F)F)c4)C[C@H]3C2)cc1 [Example 55, 5-(4-tert-butylphenyl)-5-hydroxy-N-[3-(trifluoromethyl)phenyl]-octahydrocyclopenta[c] pyrrole-2-carboxamide] | > 10 | 10 | – | –
18 | N#Cc1cccc(NC(=O)N2C[C@@H]3C[C@@](O)(c4ccccc4)C[C@@H]3C2)c1 [Example 26, N-(3-cyanophenyl)-5-hydroxy-5-phenyl-octahydrocyclopenta[c] pyrrole-2-carboxmaide] | > 10 | 10 | – | –
19 | O=C(CN1C[C@@H]2C[C@@](O)(Cc3ccc(F)cc3F)C[C@@H]2C1)c1ccc(O)cc1 [Example 238, 2-(5-(2,4-difluorobenzyl)-5-hydroxyhexahydrocyclo-penta[c]pyrrol-2(1H)-yl)-1-(4-hydroxyphenyl)ethanone] | < 0.1 | 0.0516 | – | –
20 | O=C(Nc1cccc(Cl)c1)N1C[C@H]2C[C@@H](c3ccccc3)C[C@H]2C1 [Example 106, N-(3-chlorophenyl)-5-phenyl-octahydrocyclopenta[c] pyrrole-2-carboxamide] | > 10 | 10 | – | –
21 | COc1ccc(NC(=O)N2C[C@H]3C[C@@H](c4ccccc4)C[C@H]3C2)cc1 [Example 99, 2 N-(4-methoxyphenyl)-5-phenylhexahydrocyclo-penta[c]pyrrole-2(1H)-carboxamide] | > 10 | 10 | – | –

Further lines, with some results ahead:

Row | IC50 (NR1/NR2B [1]; [3]) [µM] | IC50 (NR1/NR2B [2]; [4]) [µM] | SMILES | IC50 (NR1/NR2B [1]) [µM] | IC50 (NR1/NR2B [2]) [µM]
22 | > 10 | 10 | O=C(CN1C[C@@H]2CN(Cc3ccccc3)C[C@@H]2C1)c1ccc(O)cn1 [Example 328, 2-(5-benzylhexahydropyrrolo [3,4-c]pyrrol-2(1H)-yl)-1-(5-hydroxypyridin-2-yl)ethanone] | – | –
23 | 0.1 to 1 | 0.215 | O=C(CN1C[C@H]2C[C@@H](CCc3ccccc3)C[C@H]2C1)c1ccc(O)cc1 [Example 324, 1-(4-hydroxyphenyl)-2-((3aR,5r,6aS)-5-phenethylhexa-hydrocyclo-penta[c]pyrrol-2(1H)-yl)ethanone] | – | –
24 | > 10 | 10 | O=C(CN1C[C@@H]2C[C@@](O)(Cc3ccccc3)C[C@@H]2C1)c1ccc(-c2cccnc2)cc1 [Example 267, 2-((3aR,5r,6aS)-5-benzyl-5-hydroxyhexahydrocyclo-penta[c]pyrrol-2(1H)-yl)-1-(4-(pyridin-3-yl)phenyl)ethanone] | – | –
25 | > 10 | 10 | Cc1ccccc1-c1cccc(C(=O)CN2C[C@@H]3C[C@@](O)(Cc4ccccc4)C[C@@H]3C2)c1 [Example 278, 2-((3aR,5r,6aS)-5-benzyl-5-hydroxyhexahydrocyclo-penta[c]pyrrol-2(1H)-yl)-1-(2′-methyl-[1,1′-biphenyl]-3-yl)ethanone] | – | –
26 | 1 to 10 | 2.67 | O=C(CN1CC2(C1)CC(O)(Cc1ccccc1)C2)c1ccc(O)cc1 [Example 342, 2-(6-benzyl-6-hydroxy-2-azspiro[3.3]heptan-2-yl)-1-(4-hydroxyphenyl)ethanone] | – | –
27 | > 10 | 10 | COc1cccc(-c2cccc(C(=O)CN3C[C@@H]4C[C@@](O)(Cc5ccccc5)C[C@@H]4C3)c2)c1 [Example 273, 2-((3aR,5r,6aS)-5-benzyl-5-hydroxyhexahydrocyclo-penta[c]pyrrol-2(1H)-yl)-1-(3′-methoxy-[1,1′-biphenyl]-3-yl)ethanone] | – | –
28 | > 10 | 10 | COc1cccc(NC(=O)N2C[C@H]3CC(Cc4ccccc4)C[C@H]3C2)c1 (stereo partly drawn) [Example 294, (3aR,6aS)-5-benzyl-N-(3-methoxyphenyl) hexahydro-cylcopenta[c]pyrrole-2(1H)-carboxamide] | – | –
29 | < 0.1 | 0.024 | Oc1ccc([C@@H](O)CN2C[C@@H]3C[C@@](O)(Cc4ccc(F)cc4)C[C@@H]3C2)nc1 [Example 255, (3aR,5S,6aS)-5-(4-fluorobenzyl)-2-((S)-2-hydroxy-2-(5-hydroxypyridin-2-yl)ethyl)octahydrocyclo-penta[c]pyrrol-5-ol] | – | –
30 | > 10 | 10 | O=C(CN1C[C@@H]2CC(O)(CCc3ccccc3)C[C@@H]2C1)c1ccc(-c2cccc(F)c2)cc1 (some centres unmarked) [Example 270, 1-[4-(3-fluorophenyl)phenyl]-2-[5-hydroxy-5-(2-phenylethyl)-octahydrocyclopenta[c]pyrrol-2-yl]ethan-1-one] | – | –
31 | < 0.1 | 0.0522 | O=C(CN1C[C@H]2C[C@H](Cc3ccccc3)C[C@H]2C1)c1ccc(O)c(F)c1 [Example 308, 2-[(3aR,5R,6aS)-5-benzyl-octahydrocyclopenta[c]pyrrol-2-yl]-1-(3-fluoro-4-hydroxyphenyl) ethan-1-one] | – | –

Source: patent publication US10052306B2 (LUC THERAPEUTICS, INC., priority 2013, dated 2018)
